Tests used:
[1] = test system: C57BL/6 mDCs co-cultured with BALB/c CD8+ T cells; test: CD8+ Treg differentiation-inducing capacity of DCs treated with 14-DHE (Example 12); assay type: cell-based, mouse; details: mDC:CD8+ T 1:10; 0.5 ng/mL TGF-α 3; 5 days
Description: In a manner similar to Example 11, mDCs were sorted from DCs induced from C57BL/6 mouse bone marrow cells in the presence of 14-DHE and Flt-3L. Next, CD8^+ T cells were isolated from the BALB/c mouse spleen using the CD8α^+ T cell isolation kit (mouse) (Miltenyi Biotec). Cells were mixed at a ratio of mDC:CD8^+ T cell of 1:10 and then cultured in the medium containing 0.5 ng/mL […] for 5 days. Five days later, the cells were recovered and then the proportion of CD25^+FoxP3^+ cells in CD8^+ T cells was determined using a flow cytometer. Prior to flow cytometry, cell staining was performed using CD8α-PE-Cy7, CD25-APC-Cy7, and CD3e-PerCP, cell membrane permeabilization treatment was performed using the FoxP3 staining buffer set (eBioscience), and then FoxP3-PE staining was performed.

[2] = test system: C57BL/6 mDCs co-cultured with BALB/c CD4+CD62L+ T cells; test: Cytokine profile of CD4+ T cells induced by DCs treated with 14-DHE, MLR (Example 11); assay type: cell-based, mouse; details: 14-DHE 3 μM, day 4 supernatant, vs control mDC
Description: In a manner similar to that described in the above Examples, bone marrow cells were prepared from C57BL/6 mouse thigh bone, and then dendritic cells were induced using Flt-3L. 14-DHE was added at 3 μM simultaneously with the initiation of culture. Seven days later, Salmonella typhosa-derived LPS (Sigma Aldrich) was added at 5 ng/mL and then 24 hours later, cells were recovered. Subsequently, CD11c^+CD11b^+ was set as a gate for mDCs and then recovered cells were sorted. Next, from the BALB/c mouse spleen, CD4^+CD62L^+ T cells were isolated using the CD4^+CD62L^+ T cell isolation kit II (mouse) (Miltenyi Biotec), followed by mixed culture at a ratio of mDC:CD4^+T cell of 1:5. As a control, mDC prepared in the absence of 14-DHE was used. A culture supernatant on day 4 of culture was recovered, and then TNF-α, IFN-γ, IL-6, IL-10, and IL-17 were measured by ELISA. As ELISA kits, Mouse TNF-α Ready-SET-Go! (eBioscience), a BD OptEIA Mouse IFN-γ ELISA set (BD Life Science), Mouse IL-6 Ready-SET-Go! (eBioscience), a BD OptEIA Mouse IL-10 ELISA set (BD Life Science), and Mouse IL-17 DuoSet ELISA (R&D Systems) were separately used.

[3] = test system: CD4+ T cells in regional lymph node cells and spleen cells of EAE mice; test: EAE model, day 11 autopsy: intracellular cytokine positive rate in CD4+ T cells; assay type: in vivo, mouse; details: re-stimulation with 2 μM MOG
Description: (§1) On day 0, the 35-55 peptide (MOG35-55, Operon), a glycoprotein of myelin oligodendroglial cells, as an antigen was mixed with complete Freund's adjuvant (CFA, Difco) and then the mixture was subcutaneously administered at a dose of 200 μg/animal. Subsequently, pertussis toxin (Wako Pure Chemical Industries, Japan) was intraperitoneally administered at a dose of 200 ng/animal on day 1 and day 3, thereby inducing the onset of multiple sclerosis. During days 7 to 18, 14-DHE was intraperitoneally administered at a dose of 10 μg/animal once a day. To the vehicle group, the following solvent for 14-DHE was administered: 10% ethanol (Wako Pure Chemical Industries, Japan)/10% Cremophor (Wako Pure Chemical Industries, Japan)/80% PBS (Takara, Japan).
Mice were autopsied on day 11 (when inflammation was thought to take place in vivo) to obtain biochemical data.
(2) Spleen cells and regional lymph node (inguinal or axillary) cells were prepared and then cultured for 3 days with re-stimulation with 2 μM MOG. Golgi plug (1 μL/mL) (Becton, Dickinson and Company) was added and then further incubation was performed for 4.5 hours. Cells were recovered and then subjected to cell surface staining with CD4-PerCP and CD3-APC-Cy7. Next, cell membrane permeabilization treatment was performed using the Cytofix/CytoPerm kit (Becton, Dickinson and Company), intracellular cytokine staining was performed using antibodies to TNF-α-FITC, IL-17-PE, IL-10-APC, and IFN-γ-PE-Cy7, and then the positive rate of intracellular cytokines in CD4^+ T cells was measured using FACS.

[4] = test system: mDCs (CD11b+CD11c+B220-) of EAE mice; test: EAE model, day 11 autopsy: mDC activation markers; assay type: in vivo, mouse; details: autopsy on day 11
Description: as §1, with “Japan). Mice were autopsied on day 11 (when inflammation was thought to take place in vivo) to obtain biochemical data. […] A gate was set on mDCs, which are CD11b^+CD11c^+B220^− cells, and I-A/I-E (MHC class II), CD86, and CD80 were measured as activation markers.” for “Japan).”

[5] = test system: naive CD4+ T cells from BALB/c mouse spleen; test: Regulatory T-cell-inducing effect of 14-DHE on CD4+ naive T cells (Example 13); assay type: cell-based
Description: Naive CD4^+ T cells were isolated from BALB/c mouse spleen-derived cells using the CD4^+CD62L^+ T cell isolation kit II (mouse) (Miltenyi Biotec). CD4^+ T cells were seeded at a density of 5×10^5 cells/mL to 48-well plates (2.5×10^5 cells per well), and then 1 μg/mL anti-CD3 antibody and 0.2 μg/mL anti-CD28 antibody were added. At this time, 2 types of media (i.e., media with and without TGF-β) were used. 14-DHE was added at a concentration of 0, 50, 100, 500, and 1000 nM. Five days later, cells were recovered. The proportion of CD25^+FoxP3^+ cells in CD4^+ T cells was determined using a flow cytometer. Prior to flow cytometry, cell surface staining was performed using CD4-APC, CD25-FITC and CD3e-PerCP, cell membrane permeabilization treatment was performed using the FoxP3 staining buffer set (eBioscience), and then FoxP3-PE staining was performed.

Q: With `CC(C)[C@@H](C)/C=C/[C@@H](C)[C@H]1CC=C2C3=CC=C4C[C@@H](O)CC[C@]4(C)[C@H]3CC[C@@]21C` [Sample 14-DHE, ergosta-5,7,14,22-tetraen-3β-ol] as the compound, how does the “induction of CD8+CD25+FoxP3+ cells compared with control mDCs” value [1] read?
A: ≥ 3 times

Q: And the “IFN-γ production (ELISA)” value [2]?
A: significant decreases

Q: What about the “IL-6 production (ELISA)” value [2] of the same compound?
A: significant decreases

Q: And the “IL-10 production (ELISA)” value [2]?
A: no statistically significant difference was observed

Q: What about the “IL-17 production (ELISA)” value [2] of the same compound?
A: significant decreases

Q: And the “TNF-α production (ELISA)” value [2]?
A: significant decreases

Q: And the “IFN-γ production by CD4+ T cells, lymph node cells” value [3]?
A: significantly decrease

Q: What about the “IFN-γ production by CD4+ T cells, spleen cells” value [3] of the same compound?
A: significantly decrease

Q: And the “IL-17 production by CD4+ T cells, spleen cells” value [3]?
A: significantly decrease

Q: What about the “TNF-α production by CD4+ T cells, lymph node cells” value [3] of the same compound?
A: significantly decrease

Q: And the “TNF-α production by CD4+ T cells, spleen cells” value [3]?
A: significantly decrease

Q: And the “CD80 on mDCs, lymph node” value [4]?
A: significant decrease

Q: And the “CD86 on mDCs, lymph node” value [4]?
A: decreasing trend

Q: What about the “I-A/I-E (MHC class II) on mDCs, lymph node” value [4] of the same compound?
A: decreasing trend

Q: And the “I-A/I-E on mDCs, spinal cord” value [4]?
A: significant decrease

Q: What about the “effective concentration on T cells lower compared with that of DCs” value ([5]; T cells vs DCs (1 μM)) of the same compound?
A: ≥ 20 times

Q: And the “proportion of CD25+FoxP3+ cells in CD4+ T cells” value ([5]; absence of TGF-β, 14-DHE 50-1000 nM, 5 days)?
A: no change

Q: What about the “increase in proportion of CD25+FoxP3+ cells compared with no 14-DHE” value ([5]; presence of TGF-β, 14-DHE 50 nM (lowest concentration), 5 days) of the same compound?
A: ≥ 5 times

Reference: US9101566B2, “Fermentation product of cereal plant-derived material and immunomodulator” (KIRIN HOLDINGS KABUSHIKI KAISHA, priority 2009, dated 2015)
